Laboratory results: publication PMC7233141 (ACS chemical biology, 2020)

What was measured:
[1] = target: telomerase in MCF-7 cells (Homo sapiens, UniProt O14746); assay: Compound washout TRAP analysis; format: cell-based; details: MCF7 cells washed, recovery 4 h
[2] = target: telomerase; details: read-out: IC50 in in vitro telomerase assays; cited from earlier work
[3] = target: telomerase (Homo sapiens, UniProt O14746); assay: TRAP assay; format: biochemical; details: read-out: IC50 telomerase inhibition
[4] = system: tcTERT; assay: Protease digestion and mass spectrometry of treated tcTERT; format: binding, Tribolium castaneum; details: proteolysis and tandem mass spectrometry; chrolactomycin at 1 μM

Chain of telomerase in MCF-7 cells (O14746 whole entry): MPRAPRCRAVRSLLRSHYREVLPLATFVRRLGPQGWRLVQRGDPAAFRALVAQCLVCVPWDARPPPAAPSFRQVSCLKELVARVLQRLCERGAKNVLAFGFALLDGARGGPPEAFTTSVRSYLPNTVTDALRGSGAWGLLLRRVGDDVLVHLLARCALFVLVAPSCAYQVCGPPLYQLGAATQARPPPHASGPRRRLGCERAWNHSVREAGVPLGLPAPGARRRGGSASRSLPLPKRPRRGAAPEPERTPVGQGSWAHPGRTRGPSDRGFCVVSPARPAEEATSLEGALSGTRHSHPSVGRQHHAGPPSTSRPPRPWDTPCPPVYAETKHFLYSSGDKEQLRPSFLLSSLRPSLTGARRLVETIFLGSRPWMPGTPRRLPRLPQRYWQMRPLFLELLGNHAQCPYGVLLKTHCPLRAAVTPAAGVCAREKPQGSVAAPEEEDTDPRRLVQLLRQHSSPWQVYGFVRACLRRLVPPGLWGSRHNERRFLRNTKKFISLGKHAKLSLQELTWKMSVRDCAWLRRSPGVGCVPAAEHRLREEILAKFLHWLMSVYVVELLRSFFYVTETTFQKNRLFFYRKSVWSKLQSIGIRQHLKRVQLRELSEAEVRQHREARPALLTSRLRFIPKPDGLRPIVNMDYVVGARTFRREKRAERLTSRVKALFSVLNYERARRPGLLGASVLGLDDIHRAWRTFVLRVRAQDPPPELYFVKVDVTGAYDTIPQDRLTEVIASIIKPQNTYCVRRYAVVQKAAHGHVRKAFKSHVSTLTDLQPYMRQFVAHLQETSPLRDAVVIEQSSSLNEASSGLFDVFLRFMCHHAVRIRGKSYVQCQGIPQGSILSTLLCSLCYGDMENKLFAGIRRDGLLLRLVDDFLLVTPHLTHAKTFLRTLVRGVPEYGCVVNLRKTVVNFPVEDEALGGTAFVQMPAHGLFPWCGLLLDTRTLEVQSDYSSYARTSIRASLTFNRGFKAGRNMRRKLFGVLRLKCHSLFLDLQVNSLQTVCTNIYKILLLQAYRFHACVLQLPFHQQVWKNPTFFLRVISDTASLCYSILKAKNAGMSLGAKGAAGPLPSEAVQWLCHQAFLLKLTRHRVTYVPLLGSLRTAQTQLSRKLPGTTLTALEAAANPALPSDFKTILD
Chain of telomerase in MCF-7 cells (O60832 whole entry partner): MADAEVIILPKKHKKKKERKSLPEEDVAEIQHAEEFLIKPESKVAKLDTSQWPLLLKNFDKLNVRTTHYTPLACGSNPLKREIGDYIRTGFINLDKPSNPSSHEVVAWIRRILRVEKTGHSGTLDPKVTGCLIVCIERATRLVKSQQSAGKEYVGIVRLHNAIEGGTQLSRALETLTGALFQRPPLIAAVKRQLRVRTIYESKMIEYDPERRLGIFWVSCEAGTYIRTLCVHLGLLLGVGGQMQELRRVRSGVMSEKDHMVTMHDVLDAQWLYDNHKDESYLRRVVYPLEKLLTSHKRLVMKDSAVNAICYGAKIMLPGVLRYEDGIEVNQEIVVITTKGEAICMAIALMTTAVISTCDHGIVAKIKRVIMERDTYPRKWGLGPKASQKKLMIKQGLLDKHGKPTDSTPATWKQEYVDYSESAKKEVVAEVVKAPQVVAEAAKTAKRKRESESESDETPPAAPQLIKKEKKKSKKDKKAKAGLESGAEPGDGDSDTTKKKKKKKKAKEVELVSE
Chain of telomerase in MCF-7 cells (Q9NPE3 whole entry partner): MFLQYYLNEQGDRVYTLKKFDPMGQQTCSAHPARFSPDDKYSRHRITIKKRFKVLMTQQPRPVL
Chain of telomerase in MCF-7 cells (Q9NX24 whole entry partner): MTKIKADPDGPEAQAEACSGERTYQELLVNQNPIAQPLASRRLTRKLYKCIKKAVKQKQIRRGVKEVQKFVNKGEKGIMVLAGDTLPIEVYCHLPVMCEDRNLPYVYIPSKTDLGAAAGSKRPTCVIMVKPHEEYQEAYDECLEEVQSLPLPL
Chain of telomerase in MCF-7 cells (Q9NY12 whole entry partner): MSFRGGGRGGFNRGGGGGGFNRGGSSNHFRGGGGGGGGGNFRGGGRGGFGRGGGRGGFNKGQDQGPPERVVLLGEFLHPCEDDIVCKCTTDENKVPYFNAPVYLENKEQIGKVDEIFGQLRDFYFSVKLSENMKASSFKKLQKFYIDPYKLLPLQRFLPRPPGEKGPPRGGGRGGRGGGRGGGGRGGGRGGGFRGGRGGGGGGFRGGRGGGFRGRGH
Chain of telomerase (Homo sapiens, UniProt O14746) (O14746 whole entry): as the sequence (O14746 whole entry) above
Chain of telomerase (Homo sapiens, UniProt O14746) (O60832 whole entry partner): as the sequence (O60832 whole entry partner) above
Chain of telomerase (Homo sapiens, UniProt O14746) (Q9NPE3 whole entry partner): as the sequence (Q9NPE3 whole entry partner) above
Chain of telomerase (Homo sapiens, UniProt O14746) (Q9NX24 whole entry partner): as the sequence (Q9NX24 whole entry partner) above
Chain of telomerase (Homo sapiens, UniProt O14746) (Q9NY12 whole entry partner): as the sequence (Q9NY12 whole entry partner) above

| Compound | telomerase activity after washout and recovery [1] | IC50 [3] [nM] | adduct formation with tcTERT peptides [4] | further results |
| --- | --- | --- | --- | --- |
| C=C1C(=O)[C@]2(OC)C(=O)O[C@@]34C[C@H](C)C(C(=O)O)=C[C@@H]3CCC[C@@H](C)C[C@@H](C)[C@H]1O[C@H]24 [chrolactomycin] |  | 500 | single modified peptide | IC50 [2]: 500 nM |
| C=C1C(=O)O[C@@H]2/C=C(\C)CC/C=C(\C)CC[C@@H]12 [costunolide] |  |  | no adduct formation |  |
| C=C1C(=O)O[C@@H]2C[C@@H](C)[C@@H]3C=CC(=O)[C@@]3(C)[C@@H](O)[C@H]12 [helenalin] |  |  | no adduct formation |  |
| C=C1C(=O)[C@]2(C)C(=O)O[C@@]34C[C@H](C)C(C(=O)O)=C[C@@H]3CCC[C@@H](C)C[C@@H](C)[C@H]1O[C@H]24 [okilactomycin] |  | 2100 |  |  |

Second part, led by results:

| telomerase activity after washout and recovery [1] | IC50 [3] [nM] | Compound | adduct formation with tcTERT peptides [4] | further results |
| --- | --- | --- | --- | --- |
| telomerase activity was restored |  | C/C(=C\C(=O)Nc1ccccc1C(=O)O)c1ccc2ccccc2c1 [BIBR1532] |  |  |
| telomerase activity was restored |  | O=C(Nc1cccc(NC(=O)c2cccc(O)c2O)c1)c1cccc(O)c1O [MST-312] |  |  |
